# Data published in patent US4291164A, “Cephalosporin analogs and methods for production thereof” (Kyowa Hakko Kogyo Co., Ltd., priority 1978, dated 1981).
# Where two headings read alike, the source gives them in different places.
# Key:
# Assay type in all cases: cell-based
# [1] = test system: Pseudomonas aeruginosa 145; test: Antibacterial activity, Heart Infusion Agar Dilution Method, Pseudomonas aeruginosa 145; details: for MIC: Pseudomonas aeruginosa, 145, pH 7.2, read-out: Minimum Inhibitory Concentration
# Procedure: (§1) The antibacterial activity of the compounds obtained in the above Examples 24, 26, 28, 30, 32, 34, 36, 38, 40 and 41 are determined by Heart Infusion Agar Dilution Method (pH 7.2). Cefazolin is used as a reference.
# [2] = test system: Klebsiella pneumoniae 8045; test: Antibacterial activity, Heart Infusion Agar Dilution Method, Klebsiella pneumoniae 8045; details: for MIC: pH 7.2, read-out: Minimum Inhibitory Concentration
# Procedure: as §1
# Pseudomonas putida F264 = test: Antibacterial activity, Heart Infusion Agar Dilution Method, Pseudomonas putida F264; details: for MIC: pH 7.2, read-out: Minimum Inhibitory Concentration
# Escherichia coli NIHJC2 = test: Antibacterial activity, Heart Infusion Agar Dilution Method, Escherichia coli NIHJC2
# Procedure: as §1
# [3] = test system: Klebsiella pneumoniae Y60; test: Antibacterial activity, Heart Infusion Agar Dilution Method, Klebsiella pneumoniae Y60; details: pH 7.2, read-out: Minimum Inhibitory Concentration
# Serratia marcescens T26 = test: Antibacterial activity, Heart Infusion Agar Dilution Method, Serratia marcescens T26; details: for MIC: pH 7.2, read-out: Minimum Inhibitory Concentration
# Proteus rettgeri KY4289 = test: Antibacterial activity, Heart Infusion Agar Dilution Method, Proteus rettgeri KY4289; details: for MIC: Providencia rettgeri, pH 7.2, read-out: Minimum Inhibitory Concentration
# Procedure: as §1
# Proteus vulgaris 6897 = test: Antibacterial activity, Heart Infusion Agar Dilution Method, Proteus vulgaris 6897; details: for MIC: pH 7.2, read-out: Minimum Inhibitory Concentration
# Procedure: as §1
# [4] = test system: Staphylococcus epidermidis; test: Antibacterial activity, Heart Infusion Agar Dilution Method, Staphylococcus epidermidis; details: for MIC: pH 7.2, read-out: Minimum Inhibitory Concentration
# Procedure: as §1
# Escherichia coli Juhl = test: Antibacterial activity, Heart Infusion Agar Dilution Method, Escherichia coli Juhl
# Serratia marcescens T55 = test: Antibacterial activity, Heart Infusion Agar Dilution Method, Serratia marcescens T55; details: for MIC: pH 7.2, read-out: Minimum Inhibitory Concentration
# [5] = test system: Staphylococcus aureus Smith; test: Antibacterial activity, Heart Infusion Agar Dilution Method, Staphylococcus aureus Smith; details: for MIC: pH 7.2, read-out: Minimum Inhibitory Concentration
# Procedure: as §1
# [6] = test system: Staphylococcus aureus 209p; test: Antibacterial activity, Heart Infusion Agar Dilution Method, Staphylococcus aureus 209p; details: for MIC: pH 7.2, read-out: Minimum Inhibitory Concentration
# Procedure: as §1
# Proteus mirabilis 1287 = test: Antibacterial activity, Heart Infusion Agar Dilution Method, Proteus mirabilis 1287; details: for MIC: pH 7.2, read-out: Minimum Inhibitory Concentration
# Procedure: as §1
# Proteus morganii KY4298 = test: Antibacterial activity, Heart Infusion Agar Dilution Method, Proteus morganii KY4298; details: for MIC: Morganella morganii, pH 7.2, read-out: Minimum Inhibitory Concentration
# Procedure: as §1
# Microorganism = test: Antimicrobial activity as shown in table (overall statement); details: as shown in table below
# Procedure: as §1
# [7] = Escherichia coli NIHJC2, Heart Infusion Agar Dilution, pH 7.2, read-out: Minimum Inhibitory Concentration
# [8] = Escherichia coli Juhl, Heart Infusion Agar Dilution, pH 7.2, read-out: Minimum Inhibitory Concentration
Compound,MIC [1] [µg/mL],MIC [2] [µg/mL],MIC (Pseudomonas putida F264) [µg/mL],MIC [3] [µg/mL],MIC (Serratia marcescens T26) [µg/mL],MIC (Proteus rettgeri KY4289) [µg/mL],MIC (Proteus vulgaris 6897) [µg/mL],MIC [4] [µg/mL],MIC (Serratia marcescens T55) [µg/mL],MIC [5] [µg/mL],MIC [6] [µg/mL],MIC (Proteus mirabilis 1287) [µg/mL],MIC (Proteus morganii KY4298) [µg/mL],MIC (Escherichia coli NIHJC2; [7]) [µg/mL],MIC (Escherichia coli Juhl; [8]) [µg/mL],other results
"Cc1nnc(SCC2=C(C(=O)O)N3C(=O)[C@@H](NC(=O)Cn4cnnn4)[C@H]3SC2)s1 [Cefazolin, reference compound]",> 100,0.78,> 100,3.12,> 100,25,12.5,0.78,50,0.4,< 0.05,12.5,> 100,–,–,"MIC (Escherichia coli NIHJC2; Escherichia coli, NIHJC2, pH 7.2, read-out: Minimum Inhibitory Concentration): 1.56 µg/mL; MIC (Escherichia coli Juhl; Escherichia coli, pH 7.2, read-out: Minimum Inhibitory Concentration): 1.56 µg/mL"
"CC(=O)O[C@@H]1C=C(C(=O)O)N2C(=O)[C@@H](NC(=O)Cc3cccs3)[C@H]2C1 (relative stereo) [Example 41, (±)-cis-7β-(2-thienylacetamido)4α-acetoxy-1-azabicyclo[4,2,0]oct-2-en-8-on-2-carboxylic acid]",> 100,> 100,> 100,25,> 100,> 100,> 100,12.5,> 100,25,3.12,> 100,> 100,100,100,–
"N[C@@H](C(=O)N[C@H]1C(=O)N2C(C(=O)O)=CCC[C@H]12)c1ccccc1 (racemic) [Example 26, (±)-cis-7-[(R)-2-phenyl-2-aminoacetamido]-1-azabicyclo-[4,2,0]oct-2-en-8-on-2-carboxylic acid]",> 100,3.12,> 100,12.5,> 100,50,25,6.25,25,12.5,0.4,25,100,12.5,12.5,–
"C[C@@H]1C=C(C(=O)O)N2C(=O)[C@@H](NC(=O)[C@H](N)c3ccccc3)[C@H]2C1 (relative stereo) [Example 32, (±)-cis-7β-[(R)-2-phenyl-2-aminoacetamido]-4α-methyl-2-carboxy-1-azabicyclo[4,2,0]oct-2-en-8-one]",> 100,3.12,100,> 100,> 100,> 100,50,6.25,25,6.25,0.78,50,100,12.5,12.5,–
"CCN1CCN(C(=O)NC(C(=O)NC2C(=O)N3C(C(=O)O)=CCCC23)c2ccccc2)C(=O)C1=O (stereo in doubt) [Example 28, (±)-cis-7-[(R)-2-phenyl-2-(4-ethyl-2,3-dioxo-1-piperazinylcarbonylamino)acetamido]-1-azabicyclo[4,2,0]oct-2-en-8-one-2-carboxylic acid]",100,< 0.05,6.25,25,25,6.25,< 0.05,3.12,3.12,3.12,0.78,1.56,3.12,1.56,1.56,antimicrobial activity (in words) (Microorganism): strong antimicrobial activity
"CON=C(C(=O)NC1C(=O)N2C(C(=O)O)=CC(C)CC12)c1csc(N)n1 (racemic) [Example 36, (±)-cis-7β-[2-(2-amino-4-thiazolyl)-2-methoxyiminoacetamido]-4β-methyl-2-carboxy-1-azabicyclo[4,2,0]oct-2-en-8-one]",–,–,–,–,–,–,–,–,–,–,–,–,–,–,–,"Minimum Inhibitory Concentration ([1]; Pseudomonas aeruginosa 145, Heart Infusion Agar Dilution, pH 7.2): > 100 µg/mL; Minimum Inhibitory Concentration ([2]; pH 7.2): 0.2 µg/mL; Minimum Inhibitory Concentration (Pseudomonas putida F264; pH 7.2): 0.4 µg/mL; Minimum Inhibitory Concentration (Escherichia coli NIHJC2; Escherichia coli NIHJC2, Heart Infusion Agar Dilution, pH 7.2): 0.2 µg/mL; Minimum Inhibitory Concentration (Serratia marcescens T26; pH 7.2): 6.25 µg/mL; Minimum Inhibitory Concentration (Proteus rettgeri KY4289; pH 7.2): 0.4 µg/mL; Minimum Inhibitory Concentration (Proteus vulgaris 6897; pH 7.2): 0.78 µg/mL; Minimum Inhibitory Concentration ([4]; pH 7.2): > 100 µg/mL; Minimum Inhibitory Concentration (Serratia marcescens T55; pH 7.2): 3.12 µg/mL; Minimum Inhibitory Concentration ([5]; pH 7.2): 100 µg/mL; Minimum Inhibitory Concentration ([6]; pH 7.2): 50 µg/mL; Minimum Inhibitory Concentration (Proteus mirabilis 1287; pH 7.2): 0.78 µg/mL; Minimum Inhibitory Concentration (Proteus morganii KY4298; pH 7.2): 0.78 µg/mL"
"CO/N=C(\C(=O)N[C@@H]1C(=O)N2C(C(=O)O)=C[C@@H](C)C[C@H]12)c1csc(N)n1 (relative stereo) [Example 38, (±)-cis-7β-[2-(2-amino-4-thiazolyl)-2-syn-methoxyiminoacetamido]-4α-methyl-1-azabicyclo[4,2,0]oct-2-en-8-one-2-carboxylic acid]",> 100,≤ 0.05,≤ 0.05,≤ 0.05,–,≤ 0.05,≤ 0.05,12.5,0.1,12.5,12.5,≤ 0.05,≤ 0.05,≤ 0.05,≤ 0.05,–
